Test results from PubChem BioAssay AID2060496 (Molecular Pharmacology Branch, DTP, NCI, 2025).

System: 276233-004-R-J1-PDC complex spheroid viability
Experiment: Anticancer human tumor 276233-004-R-J1-PDC patient-derived colon adenocarcinoma cell line growth inhibition [GQUAD]
Conditions: for IC50: curve of first compound; for viability, T/C: stronger effect = lower value
How it was run: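 Viability of tumor cells grown as complex spheroids with endothelial and stromal cells, exposed to drug combinations. Top concentration at or near clinical Cmax (else 10 microM), diluted in half-log increments.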

[1] = second compound 0.0316 µM, first compound 0.0316 µM
[2] = second compound 0.0316 µM, first compound 0.1 µM
[3] = second compound 0.0316 µM, first compound 0.316 µM
[4] = second compound 0.0316 µM, first compound 1 µM
[5] = second compound 0.0316 µM, first compound 3.16 µM
[6] = second compound 0.0316 µM, first compound 10 µM
[7] = second compound 0.1 µM, first compound 0.0316 µM
[8] = second compound 0.1 µM, first compound 0.1 µM
[9] = second compound 0.1 µM, first compound 0.316 µM
[10] = second compound 0.1 µM, first compound 1 µM
[11] = second compound 0.1 µM, first compound 3.16 µM
[12] = second compound 0.1 µM, first compound 10 µM
[13] = second compound 0.316 µM, first compound 0.0316 µM
[14] = second compound 0.316 µM, first compound 0.1 µM
[15] = second compound 0.316 µM, first compound 0.316 µM
[16] = second compound 0.316 µM, first compound 1 µM
[17] = second compound 0.316 µM, first compound 3.16 µM
[18] = second compound 0.316 µM, first compound 10 µM
[19] = second compound 1 µM, first compound 0.0316 µM
[20] = second compound 1 µM, first compound 0.1 µM
[21] = second compound 1 µM, first compound 0.316 µM
[22] = second compound 1 µM, first compound 1 µM
[23] = second compound 1 µM, first compound 3.16 µM
[24] = second compound 1 µM, first compound 10 µM
[25] = second compound 3.16 µM, first compound 0.0316 µM
[26] = second compound 3.16 µM, first compound 0.1 µM
[27] = second compound 3.16 µM, first compound 0.316 µM
[28] = second compound 3.16 µM, first compound 1 µM
[29] = second compound 3.16 µM, first compound 3.16 µM
[30] = second compound 3.16 µM, first compound 10 µM
[31] = second compound 10 µM, first compound 0.0316 µM
[32] = second compound 10 µM, first compound 0.1 µM
[33] = second compound 10 µM, first compound 0.316 µM
[34] = second compound 10 µM, first compound 1 µM
[35] = second compound 10 µM, first compound 3.16 µM
[36] = second compound 10 µM, first compound 10 µM
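Further: spheroids exposed to drugs for seven days.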
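Wherever viability, T/C is given: 100% = DMSO vehicle control viability.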

CC1COCCN1c1cc(C2(S(C)(=N)=O)CC2)nc(-c2ccnc3[nH]ccc23)n1 (stereo not drawn) + Cc1[nH]c2ccc(F)cc2c1-c1nc2c3cccnc3c3ncccc3c2[nH]1
IC50 (second compound 0.0316 µM): > 10 µM | IC50 (second compound 0.1 µM): > 10 µM | IC50 (second compound 0.316 µM): > 10 µM | IC50 (second compound 1 µM): > 10 µM | IC50 (second compound 3.16 µM): 7.86 µM | IC50 (second compound 10 µM): 0.424 µM | viability, T/C [1]: 96.4% | viability, T/C [2]: 83% | viability, T/C [3]: 110% | viability, T/C [4]: 89.6% | viability, T/C [5]: 87.1% | viability, T/C [6]: 67.3% | viability, T/C [7]: 76.6% | viability, T/C [8]: 101% | viability, T/C [9]: 85.8% | viability, T/C [10]: 90.1% | viability, T/C [11]: 75% | viability, T/C [12]: 74.1% | viability, T/C [13]: 97.3% | viability, T/C [14]: 79.8% | viability, T/C [15]: 97.7% | viability, T/C [16]: 70.1% | viability, T/C [17]: 74.6% | viability, T/C [18]: 63.6% | viability, T/C [19]: 80.3% | viability, T/C [20]: 79% | viability, T/C [21]: 85.4% | viability, T/C [22]: 76.1% | viability, T/C [23]: 64.3% | viability, T/C [24]: 57.4% | viability, T/C [25]: 56.2% | viability, T/C [26]: 58.6% | viability, T/C [27]: 55.9% | viability, T/C [28]: 50.1% | viability, T/C [29]: 53.6% | viability, T/C [30]: 48.7% | viability, T/C [31]: 47.9% | viability, T/C [32]: 49.5% | viability, T/C [33]: 47.5% | viability, T/C [34]: 58.2% | viability, T/C [35]: 44% | viability, T/C [36]: 36.3%

COc1ccc([C@@H](O)c2cc(-c3ncnc4cc(N5CCOCC5)ccc34)c(F)cc2Cl)nn1 + Cc1[nH]c2ccc(F)cc2c1-c1nc2c3cccnc3c3ncccc3c2[nH]1
IC50 (second compound 0.0316 µM): > 10 µM | IC50 (second compound 0.1 µM): > 10 µM | IC50 (second compound 0.316 µM): > 10 µM | IC50 (second compound 1 µM): 5.02 µM | IC50 (second compound 3.16 µM): 0.424 µM | IC50 (second compound 10 µM): 0.352 µM | viability, T/C [1]: 89.6% | viability, T/C [2]: 77.9% | viability, T/C [3]: 97.2% | viability, T/C [4]: 72.6% | viability, T/C [5]: 72.6% | viability, T/C [6]: 68.7% | viability, T/C [7]: 88.3% | viability, T/C [8]: 79.6% | viability, T/C [9]: 70.5% | viability, T/C [10]: 74% | viability, T/C [11]: 72.7% | viability, T/C [12]: 65.7% | viability, T/C [13]: 87.8% | viability, T/C [14]: 79.4% | viability, T/C [15]: 96% | viability, T/C [16]: 80.9% | viability, T/C [17]: 70.9% | viability, T/C [18]: 61.2% | viability, T/C [19]: 61.1% | viability, T/C [20]: 70.1% | viability, T/C [21]: 67% | viability, T/C [22]: 62.2% | viability, T/C [23]: 50.4% | viability, T/C [24]: 44.5% | viability, T/C [25]: 59% | viability, T/C [26]: 51.7% | viability, T/C [27]: 51.1% | viability, T/C [28]: 49.1% | viability, T/C [29]: 33.3% | viability, T/C [30]: 24.1% | viability, T/C [31]: 53.4% | viability, T/C [32]: 48% | viability, T/C [33]: 53% | viability, T/C [34]: 41.5% | viability, T/C [35]: 29% | viability, T/C [36]: 25.6%

Cc1cccc(N(C)C(=O)C2C(O)CCN2c2nc(C)cc(C(F)(F)F)c2C#N)c1 (stereo not drawn) + Cc1[nH]c2ccc(F)cc2c1-c1nc2c3cccnc3c3ncccc3c2[nH]1
IC50 (second compound 0.0316 µM): > 10 µM | IC50 (second compound 0.1 µM): > 10 µM | IC50 (second compound 0.316 µM): > 10 µM | IC50 (second compound 1 µM): > 10 µM | IC50 (second compound 3.16 µM): > 10 µM | IC50 (second compound 10 µM): > 10 µM | viability, T/C [1]: 110% | viability, T/C [2]: 83.8% | viability, T/C [3]: 87.2% | viability, T/C [4]: 87.4% | viability, T/C [5]: 117% | viability, T/C [6]: 114% | viability, T/C [7]: 88.2% | viability, T/C [8]: 95.6% | viability, T/C [9]: 86.4% | viability, T/C [10]: 95.3% | viability, T/C [11]: 96.6% | viability, T/C [12]: 97.8% | viability, T/C [13]: 74.6% | viability, T/C [14]: 78% | viability, T/C [15]: 103% | viability, T/C [16]: 97.8% | viability, T/C [17]: 96% | viability, T/C [18]: 96.8% | viability, T/C [19]: 77.4% | viability, T/C [20]: 85.2% | viability, T/C [21]: 71.6% | viability, T/C [22]: 79.2% | viability, T/C [23]: 90.5% | viability, T/C [24]: 85.2% | viability, T/C [25]: 60.5% | viability, T/C [26]: 56.8% | viability, T/C [27]: 61.6% | viability, T/C [28]: 59.6% | viability, T/C [29]: 59.8% | viability, T/C [30]: 62.6% | viability, T/C [31]: 53.7% | viability, T/C [32]: 58.4% | viability, T/C [33]: 58.6% | viability, T/C [34]: 52.1% | viability, T/C [35]: 58% | viability, T/C [36]: 64.7%

Cn1ncnc1[C@H]1c2n[nH]c(=O)c3cc(F)cc(c23)N[C@@H]1c1ccc(F)cc1 + Cc1[nH]c2ccc(F)cc2c1-c1nc2c3cccnc3c3ncccc3c2[nH]1
IC50 (second compound 0.0316 µM): > 0.316 µM | IC50 (second compound 0.1 µM): > 0.316 µM | IC50 (second compound 0.316 µM): > 0.316 µM | IC50 (second compound 1 µM): > 0.316 µM | IC50 (second compound 3.16 µM): > 0.316 µM | IC50 (second compound 10 µM): < 0.000999 µM | viability, T/C (second compound 0.0316 µM, first compound 0.000999 µM): 89% | viability, T/C (second compound 0.0316 µM, first compound 0.00316 µM): 99.2% | viability, T/C (second compound 0.0316 µM, first compound 0.00999 µM): 104% | viability, T/C [1]: 94.1% | viability, T/C (second compound 0.0316 µM, first compound 0.0999 µM): 95.6% | viability, T/C [3]: 90.7% | viability, T/C (second compound 0.1 µM, first compound 0.000999 µM): 91.2% | viability, T/C (second compound 0.1 µM, first compound 0.00316 µM): 97.8% | viability, T/C (second compound 0.1 µM, first compound 0.00999 µM): 99.9% | viability, T/C [7]: 88.5% | viability, T/C (second compound 0.1 µM, first compound 0.0999 µM): 98% | viability, T/C [9]: 94.8% | viability, T/C (second compound 0.316 µM, first compound 0.000999 µM): 94.7% | viability, T/C (second compound 0.316 µM, first compound 0.00316 µM): 79.9% | viability, T/C (second compound 0.316 µM, first compound 0.00999 µM): 86.6% | viability, T/C [13]: 99.2% | viability, T/C (second compound 0.316 µM, first compound 0.0999 µM): 100% | viability, T/C [15]: 93% | viability, T/C (second compound 1 µM, first compound 0.000999 µM): 63.5% | viability, T/C (second compound 1 µM, first compound 0.00316 µM): 66.6% | viability, T/C (second compound 1 µM, first compound 0.00999 µM): 78.7% | viability, T/C [19]: 72.7% | viability, T/C (second compound 1 µM, first compound 0.0999 µM): 70.6% | viability, T/C [21]: 84.7% | viability, T/C (second compound 3.16 µM, first compound 0.000999 µM): 56.3% | viability, T/C (second compound 3.16 µM, first compound 0.00316 µM): 66.5% | viability, T/C (second compound 3.16 µM, first compound 0.00999 µM): 49.2% | viability, T/C [25]: 54.2% | viability, T/C (second compound 3.16 µM, first compound 0.0999 µM): 60.4% | viability, T/C [27]: 57.4% | viability, T/C (second compound 10 µM, first compound 0.000999 µM): 50.3% | viability, T/C (second compound 10 µM, first compound 0.00316 µM): 47.3% | viability, T/C (second compound 10 µM, first compound 0.00999 µM): 50.5% | viability, T/C [31]: 62.7% | viability, T/C (second compound 10 µM, first compound 0.0999 µM): 62% | viability, T/C [33]: 44.2%
